# Experiments:
# Assay type in all cases: in vivo, C57BL/6 mice
# [1] = Spleen weight after mobilization treatment
# Description: Additional HIF-α potentiating agents in the form of PHD inhibitors were tested for their ability to enhance mobilization induced by G-CSF. Compound A, Compound B or Compound C, were tested in male, 7 weeks-old C57BL/6 mice. Mice were injected twice daily sub-cutaneously with rhuG-CSF at a dose of 125 μg/kg per injection for four days. […]
# (§1) At the end of treatment, blood was harvested by cardiac puncture, mice were sacrificed by cervical dislocation and spleens harvested. Femurs were removed, cleaned and the bone marrow was flushed with 1 mL PBS+10% newborn calf serum (NCS).
# white blood cells = test: White blood cell number per mL of blood after mobilization treatment
# Description: (§2) Additional HIF-α potentiating agents in the form of PHD inhibitors were tested for their ability to enhance mobilization induced by G-CSF. Compound A, Compound B or Compound C, were tested in male, 7 weeks-old C57BL/6 mice. Mice were injected twice daily sub-cutaneously with rhuG-CSF at a dose of 125 μg/kg per injection for four days. Mice were gavaged with 20 mg/kg Compound A, Compound B, Compound C or vehicle control once daily for three days beginning on day 1 of the experiment.
# as §1
# [2] = test system: colony-forming cells (CFCs); test: Mobilization of colony-forming cells (CFC/CFU) to blood and spleen, colony assays; details: for number of CFUs mobilized from the bone marrow to the blood and spleen: Example 7: D 60 mg/kg, E and F 20 mg/kg, FIG. 13; for number of CFUs mobilized from the bone marrow to the blood and spleen / number of colony forming units mobilized to the spleen / total number (blood and spleen) of mobilized CFUs: + G-CSF vs vehicle + G-CSF; for number of colony forming units mobilized to the spleen / total number (blood and spleen) of mobilized CFUs: Example 8: H and J 60 mg/kg, K 100 mg/kg
# Description: Mobilization of colony-forming cells (CFCs) to the blood and spleen were measured (FIG. 1B).
# This was divided into two experiments in which G-CSF was administered for 2 days in one experiment and 4 days in the other (FIG. 2). […] Mobilization of CFCs, phenotypic Lin^−CD41^−Sca1^+Kit^+ HSPCs and Lin^−CD41^− Sca1^+Kit^+CD48^−CD150^+ HSCs were measured in blood and spleens.
# Additional HIF-α potentiating agents in the form of PHD inhibitors were tested for their ability to enhance mobilization induced by G-CSF.
# as §1
# The number of phenotypic hematopoietic stem and progenitor cells remaining in the bone marrow following treatment was measured by flow cytometry using antibodies specific for lineage markers (CD3, CD5, CD45R/B220, F4/80, Gr1, CD41, Ter119), Sca-1, Kit, CD48 and CD150. Similarly, the number of phenotypic hematopoietic stem cells mobilized into the blood and spleen were measured. Colony assays were also performed on blood and spleen to determine the number of colony forming cells per mL of blood and per spleen. […] Levels of significance for differences were calculated using the Student's t-test.
# All procedures were approved by the animal experimentation ethics committee of the University of Queensland. […] Plerixafor (AMD3100 octohydrochloride, Tocris Bioscience, Bristol, UK) was injected intraperitoneally as a single 16 mg/kg dose corresponding to 10 mg/kg of AMD3100 base. Tissues were harvested 1 h after Plerixafor administration. […] Control mice were injected with an equivalent volume of saline. At specified time-points, mice were anesthetized with isoflurane before cardiac puncture to harvest blood. Mice were then euthanized by cervical dislocation and BM and bones harvested.
# Optimal concentrations of mouse IL-3, IL-6 and soluble kit ligand were added as conditioned media from stably transfected BHK cell lines. Colonies were counted after 7 days culture at 37° C. in a humidified incubator containing 5% CO2.
# [3] = test system: hematopoietic stem and progenitor cells; test: Phenotypic HSCs, HSPCs and myeloid progenitors in blood, spleen and bone marrow by flow cytometry; details: for mobilization of myeloid progenitors (LKS−) to the blood / increase in mobilization of myeloid progenitors (LKS−) to the spleen / increase in number of HSPCs (LSK48+ and LSK) mobilized to the spleen / increase in number of phenotypic HSCs (LSK48−150+) mobilized to the spleen: Example 6: 20 mg/kg + G-CSF vs vehicle + G-CSF; for increase in mobilization of myeloid progenitors (LKS−) to the spleen / increase in number of HSPCs (LSK48+ and LSK) mobilized to the spleen / increase in number of phenotypic HSCs (LSK48−150+) mobilized to the spleen: FIGS. 8A-B; for total number of phenotypic HSPCs in the bone marrow: Example 6: 20 mg/kg once daily 3 days + rhuG-CSF 125 μg/kg twice daily 4 days vs vehicle + G-CSF, FIGS. 6A-B; for increase in total number of HSPCs (LSK48+ and LSK) mobilized from the bone marrow / increase in total number of myeloid progenitors (LKS−) mobilized from the bone marrow / increase in total number of phenotypic HSCs (LSK48−150+) mobilized from the bone marrow: Example 6: blood and spleen, 20 mg/kg + G-CSF vs vehicle + G-CSF, FIGS. 9A-B; for total number of HSCs and progenitors in the BM / total number of myeloid progenitors (LKS−) mobilized: + G-CSF vs vehicle + G-CSF; for total number of myeloid progenitors (LKS−) mobilized: Example 7: D 60 mg/kg; for total number of myeloid progenitors (LKS−) mobilized / total number of HSCs (LSK48-150+) mobilized from the bone marrow / total number of HSPCs (LSK48+ and LSK) mobilized from the bone marrow: FIGS. 12A-B; for total number of HSCs (LSK48-150+) mobilized from the bone marrow / total number of HSPCs (LSK48+ and LSK) mobilized from the bone marrow: Example 7: 20 mg/kg + G-CSF vs vehicle + G-CSF; for total number of HSPCs (LSK48+ and LSK) mobilized blood and spleen / total number of phenotypic HSCs (LSK48−150+) mobilized blood and spleen: Example 8: 60 mg/kg + G-CSF vs vehicle + G-CSF, FIGS. 14A-B
# Description: as §2, §1
# The number of phenotypic hematopoietic stem and progenitor cells remaining in the bone marrow following treatment was measured by flow cytometry using antibodies specific for lineage markers (CD3, CD5, CD45R/B220, F4/80, Gr1, CD41, Ter119), Sca-1, Kit, CD48 and CD150. Similarly, the number of phenotypic hematopoietic stem cells mobilized into the blood and spleen were measured. Colony assays were also performed on blood and spleen to determine the number of colony forming cells per mL of blood and per spleen. All results are presented as mean f standard deviation with n=6 per groups. Levels of significance for differences were calculated using the Student's t-test.
# All procedures were approved by the animal experimentation ethics committee of the University of Queensland. All experiments were performed on nine to twelve-week old C57BL/6 male mice or genetically modified mice back-crossed at least 10 times into C57BL/6. Recombinant human G-CSF (Amgen, Thousand Oaks, Calif.) was injected twice daily subcutaneously at 125 μg/kg per injection for up to 4 consecutive days. Plerixafor (AMD3100 octohydrochloride, Tocris Bioscience, Bristol, UK) was injected intraperitoneally as a single 16 mg/kg dose corresponding to 10 mg/kg of AMD3100 base. Tissues were harvested 1 h after Plerixafor administration. […] Compounds H and J were administered at 60 mg/kg and Compound K was administered at 100 mg/kg. Control mice were injected with an equivalent volume of saline. At specified time-points, mice were anesthetized with isoflurane before cardiac puncture to harvest blood. Mice were then euthanized by cervical dislocation and BM and bones harvested.
# Following flushing with PBS plus 2% NCS, enriched central BM cells were pelleted at 370×g for 5 minutes at 4° C. and resuspended in CD16/CD32 hybridoma 2.4G2 supernatant to block IgGFc receptors. HSCs were stained with the biotinylated lineage antibody cocktail (CD3, CD5, B220, CD11b, Gr-1, Ter119) and biotinylated CD41 together with streptavidin (SAV)-Pacific Blue, anti-Sca-1-PECY7, anti-KIT-APC, CD48-FITC and CD150-PE as previously described (17). Data were acquired on a CyAn (Dako Cytomation) flow cytometer and analyzed following compensation with single color controls using FlowJo software (Tree Star, Ashland, Oreg.).
# [4] = Example 6: 20 mg/kg + G-CSF vs vehicle + G-CSF, FIG. 11
# [5] = Example 6: 20 mg/kg + G-CSF vs vehicle + G-CSF, FIG. 10
# [6] = Example 7: D 60 mg/kg, E and F 20 mg/kg, + G-CSF vs vehicle + G-CSF
# [7] = Example 7: D 60 mg/kg, E 20 mg/kg, + G-CSF vs vehicle + G-CSF
# [8] = Example 7: Compound D 60 mg/kg, E and F 20 mg/kg
# [9] = Example 8: H and J 60 mg/kg, K 100 mg/kg
smiles,measurement,setting,value
"N#Cc1nc(C(=O)NCC(=O)O)c(O)c2c(Oc3ccccc3)cccc12 [Compound B, [(1-Cyano-4-hydroxy-5-phenoxy-isoquinoline-3-carbonyl)-amino]-acetic acid]",increase in spleen weight,[1]; [4],approximately 2 fold
same,number of white blood cells per mL of blood,white blood cells; [4],significant increase
same,number of CFUs mobilized to the spleen,[2]; [5],statistically significant
same,number of colony forming units mobilized to the blood,[2]; [5],no significant change
same,"total number of CFUs mobilized, relative to Compound A or Compound C with G-CSF","[2]; Example 6: 20 mg/kg + G-CSF, FIG. 10",comparable
same,mobilization of myeloid progenitors (LKS−) to the blood,[3],did not significantly alter
same,increase in mobilization of myeloid progenitors (LKS−) to the spleen,[3],approximately 3 fold
same,increase in number of HSPCs (LSK48+ and LSK) mobilized to the spleen,[3],approximately 2 fold
same,increase in number of phenotypic HSCs (LSK48−150+) mobilized to the spleen,[3],approximately 2 fold
same,total number of phenotypic HSPCs in the bone marrow,[3],did not significantly alter
same,increase in total number of HSPCs (LSK48+ and LSK) mobilized from the bone marrow,[3],approximately 2 fold
same,increase in total number of myeloid progenitors (LKS−) mobilized from the bone marrow,[3],approximately 6 fold
same,increase in total number of phenotypic HSCs (LSK48−150+) mobilized from the bone marrow,[3],approximately 2 fold
"O=C(O)CNC(=O)c1c(O)n(C2CCCCC2)c(=O)n(C2CCCCC2)c1=O [Compound D, [(1,3-Dicyclohexyl-6-hydroxy-2,4-dioxo-1,2,3,4-tetrahydro-pyrimidine-5-carbonyl)-amino]-acetic acid]",increase in spleen weight,[1]; [6],approximately 2 fold
same,number of white blood cells per mL of blood,white blood cells; [7],significant increase
same,number of CFUs mobilized from the bone marrow to the blood and spleen,[2],significantly increased
same,total number of HSCs and progenitors in the BM,[3]; [8],did not significantly alter
same,total number of myeloid progenitors (LKS−) mobilized,[3]; E and F 20 mg/kg,significantly increased
"O=c1c(-n2ccnn2)c[nH]n1-c1cc(N2CCOCC2)ncn1 [Compound F, 2-(6-Morpholin-4-yl-pyrimidin-4-yl)-4-[1,2,3]triazol-1-yl-1,2-dihydro-pyrazol-3-one]",increase in spleen weight,[1]; [6],approximately 2 fold
same,number of CFUs mobilized from the bone marrow to the blood and spleen,[2],significantly increased
same,total number of HSCs (LSK48-150+) mobilized from the bone marrow,[3],significant increase
same,total number of HSPCs (LSK48+ and LSK) mobilized from the bone marrow,[3],significant increase
same,total number of HSCs and progenitors in the BM,[3]; [8],did not significantly alter
same,total number of myeloid progenitors (LKS−) mobilized,[3]; E and F 20 mg/kg,significant increase
"COc1ccc(Oc2ccc3c(O)c(C(=O)NCC(=O)O)ncc3c2)cc1 [Compound J, {[4-Hydroxy-7-(4-methoxy-phenoxy)-isoquinoline-3-carbonyl]-amino}-acetic acid]",number of colony forming units mobilized to the blood,"[2]; Example 8: 60 mg/kg + G-CSF vs vehicle control, FIG. 15",significant increase
same,number of colony forming units mobilized to the spleen,[2]; FIG. 15,significant increase
same,total number (blood and spleen) of mobilized CFUs,[2]; FIG. 15,significant increase
same,total number of HSPCs (LSK48+ and LSK) mobilized blood and spleen,[3],significant increase
same,total number of phenotypic HSCs (LSK48−150+) mobilized blood and spleen,[3],significant increase
same,total number of HSCs and progenitors in the BM,[3]; [9],did not significantly alter
"CC(C)c1nn(Cc2ccc(-c3ccc(F)cc3)cc2F)c(=O)c(C(=O)NCC(=O)O)c1O [Compound E, {[2-(3,4′-Difluoro-biphenyl-4-ylmethyl)-5-hydroxy-6-isopropyl-3-oxo-2,3-dihydro-pyridazine-4-carbonyl]-amino}-acetic acid]",increase in spleen weight,[1]; [6],approximately 2 fold
same,number of white blood cells per mL of blood,white blood cells; [7],significant increase
same,number of CFUs mobilized from the bone marrow to the blood and spleen,[2],significantly increased
same,total number of HSCs (LSK48-150+) mobilized from the bone marrow,[3],significant increase
same,total number of HSPCs (LSK48+ and LSK) mobilized from the bone marrow,[3],significant increase
same,total number of HSCs and progenitors in the BM,[3]; [8],did not significantly alter
same,total number of myeloid progenitors (LKS−) mobilized,[3]; E and F 20 mg/kg,significant increase
"N#Cc1nc(C(=O)NCC(=O)O)c(O)c2ccn(Cc3ccccc3F)c12 [Compound C, {[7-Cyano-1-(2-fluoro-benzyl)-4-hydroxy-1H-pyrrolo[2,3-c]pyridine-5-carbonyl]-amino}-acetic acid]",increase in spleen weight,[1]; [4],approximately 2 fold
same,number of white blood cells per mL of blood,white blood cells; [4],significant increase
same,number of colony forming units mobilized to the blood,[2]; [5],significantly increased
same,mobilization of myeloid progenitors (LKS−) to the blood,[3],did not significantly alter
same,increase in mobilization of myeloid progenitors (LKS−) to the spleen,[3],approximately 3 fold
same,increase in number of HSPCs (LSK48+ and LSK) mobilized to the spleen,[3],approximately 2 fold
same,increase in number of phenotypic HSCs (LSK48−150+) mobilized to the spleen,[3],approximately 2 fold
same,total number of phenotypic HSPCs in the bone marrow,[3],did not significantly alter
same,increase in total number of HSPCs (LSK48+ and LSK) mobilized from the bone marrow,[3],approximately 2 fold
same,increase in total number of myeloid progenitors (LKS−) mobilized from the bone marrow,[3],approximately 6 fold
same,increase in total number of phenotypic HSCs (LSK48−150+) mobilized from the bone marrow,[3],approximately 2 fold
"O=C(O)CNC(=O)c1ncc(-c2cccc(F)c2)cc1O [Compound K, {[5-(3-Fluoro-phenyl)-3-hydroxy-pyridine-2-carbonyl]-amino}-acetic acid]",number of colony forming units mobilized to the spleen,[2]; FIG. 15,no significant change
same,total number (blood and spleen) of mobilized CFUs,[2]; FIG. 15,no significant change
same,total number of HSCs and progenitors in the BM,[3]; [9],did not significantly alter
"O=C(O)CNC(=O)c1ncc2cc(Oc3ccccc3)ccc2c1O [Compound H, [(4-Hydroxy-7-phenoxy-isoquinoline-3-carbonyl)-amino]-acetic acid]",number of colony forming units mobilized to the spleen,[2]; FIG. 15,significant increase
same,total number (blood and spleen) of mobilized CFUs,[2]; FIG. 15,significant increase
same,total number of HSPCs (LSK48+ and LSK) mobilized blood and spleen,[3],significant increase
same,total number of phenotypic HSCs (LSK48−150+) mobilized blood and spleen,[3],significant increase
same,total number of HSCs and progenitors in the BM,[3]; [9],did not significantly alter
